Common to all, as to experiment: relative viability (nuclei count vs DMSO), 5 days (fraction); higher = more cells survive
Compound in assay [1]: O=c1[nH]cc(F)c(=O)[nH]1 [5-Fluorouracil] + Cc1nc(Nc2ncc(C(=O)Nc3c(C)cccc3Cl)s2)cc(N2CCN(CCO)CC2)n1 [Dasatinib] (partner 0.075 µM)
In a few lines: (§1)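 A single step with final 0.05% Triton X-100, 1% formaldehyde and 1 ug/ml Hoechst fixed the cells and stained nuclei 5 days after treatment. Lung cancer cell lines in 1536-well plates had been treated by pin tool the day after seeding with one drug alone or a fixed anchor-drug dose plus five library-drug doses (not always all listed) in √10 steps, and nuclei were counted on 4× images. Relative viability is the ratio of nuclei in treated wells to nuclei in vehicle wells, taken as the median of duplicate plates.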

Compound in assay [2]: CN[C@@H]1C[C@H]2O[C@@](C)([C@@H]1OC)n1c3ccccc3c3c4c(c5c6ccccc6n2c5c31)C(=O)NC4 [Staurosporine] + O=C(CCCCCCC(=O)Nc1ccccc1)NO [Vorinostat] (partner 1 µM)
In a few lines: as §1

Compound in the assay “Sulindac + Lapatinib”: CC1=C(CC(=O)O)c2cc(F)ccc2/C1=C\c1ccc([S+](C)[O-])cc1 [Sulindac] + CS(=O)(=O)CCNCc1ccc(-c2ccc3ncnc(Nc4ccc(OCc5cccc(F)c5)c(Cl)c4)c3c2)o1 [Lapatinib] (partner 2 µM)
The essentials: as §1

Compound in the assay “Sulindac + Navitoclax”: CC1=C(CC(=O)O)c2cc(F)ccc2/C1=C\c1ccc([S+](C)[O-])cc1 [Sulindac] + CC1(C)CCC(c2ccc(Cl)cc2)=C(CN2CCN(c3ccc(C(=O)NS(=O)(=O)c4ccc(N[C@H](CCN5CCOCC5)CSc5ccccc5)c(S(=O)(=O)C(F)(F)F)c4)cc3)CC2)C1 [Navitoclax] (partner 0.5 µM)
The essentials:
as §1

Regarding LCLC-103H, the relative viability in assay [1] (first compound 0.02 µM) stood at 0.493; in assay [1] (first compound 0.2 µM) it was 0.417; in assay [1] (first compound 0.6325 µM), 0.326; in assay [1] (first compound 2 µM) it was 0.251; in assay [2] (first compound 0.005 µM), 0.545; in assay [2] (first compound 0.01581 µM), 0.16. The figures for the relative viability in assay [2] (first compound 0.05 µM), in assay [2] (first compound 0.1581 µM) and in assay [2] (first compound 0.5 µM) were 0.251, 0.211 and 0.198, respectively.
Consider NCI-H358, for which the relative viability is 0.206 in assay [1] (first compound 0.02 µM); 0.199 in assay [1] (first compound 0.2 µM); 0.2 in assay [1] (first compound 0.6325 µM); 0.161 in assay [1] (first compound 2 µM); 0.457 with Sulindac + Lapatinib (first compound 0.08 µM); 0.439 with Sulindac + Lapatinib (first compound 0.253 µM). Besides, the relative viability with Sulindac + Lapatinib (first compound 0.8 µM) is 0.474; with Sulindac + Lapatinib (first compound 2.53 µM), 0.44; with Sulindac + Lapatinib (first compound 8 µM), 0.564; in assay [2] (first compound 0.01581 µM) it was 0.165; in assay [2] (first compound 0.05 µM), 0.0628; in assay [2] (first compound 0.1581 µM), 0.0625. For the same cell line, the relative viability in assay [2] (first compound 0.5 µM) came out at 0.0709.
Consider NCI-H441, for which the relative viability worked out at 0.395 with Sulindac + Navitoclax (first compound 0.08 µM); 0.588 with Sulindac + Navitoclax (first compound 0.253 µM); 0.519 with Sulindac + Navitoclax (first compound 0.8 µM); 0.478 with Sulindac + Navitoclax (first compound 2.53 µM); 0.822 with Sulindac + Navitoclax (first compound 8 µM); 0.748 in assay [1] (first compound 0.02 µM). In addition, the relative viability is 0.63 in assay [1] (first compound 0.2 µM); 0.49 in assay [1] (first compound 0.6325 µM); 0.278 in assay [1] (first compound 2 µM); 0.458 in assay [2] (first compound 0.005 µM); 0.327 in assay [2] (first compound 0.01581 µM); 0.232 in assay [2] (first compound 0.05 µM). Also, the relative viability in assay [2] (first compound 0.1581 µM) is 0.144; in assay [2] (first compound 0.5 µM), 0.114.
Take NCI-H522: the relative viability in assay [1] (first compound 0.02 µM) is 0.844; in assay [1] (first compound 0.2 µM), 0.852; in assay [1] (first compound 0.6325 µM), 0.979; in assay [1] (first compound 2 µM), 0.868; in assay [2] (first compound 0.005 µM), 0.856; in assay [2] (first compound 0.01581 µM), 0.452. In addition, the relative viability in assay [2] (first compound 0.05 µM) came out at 0.75; in assay [2] (first compound 0.1581 µM) it was 0.397; in assay [2] (first compound 0.5 µM), 0.484.
In the case of NCI-H650, the relative viability in assay [1] (first compound 0.02 µM) came out at 0.444; in assay [1] (first compound 0.2 µM) it was 0.341; in assay [1] (first compound 0.6325 µM), 0.287; in assay [1] (first compound 2 µM), 0.336; in the assay with Sulindac + Lapatinib (first compound 0.08 µM), 1.08; in the assay with Sulindac + Lapatinib (first compound 0.253 µM) it was 0.977. The relative viability is 0.598 with Sulindac + Lapatinib (first compound 0.8 µM); 0.767 in the assay with Sulindac + Lapatinib (first compound 2.53 µM); 1.07 with Sulindac + Lapatinib (first compound 8 µM); 0.32 in assay [2] (first compound 0.005 µM); 0.162 in assay [2] (first compound 0.01581 µM); 0.234 in assay [2] (first compound 0.05 µM). The relative viability in assay [2] (first compound 0.1581 µM) came out at 0.181; in assay [2] (first compound 0.5 µM), 0.151.
Regarding NCI-H661, the relative viability in assay [1] (first compound 0.02 µM) worked out at 0.962; in assay [1] (first compound 0.2 µM), 1.01; in assay [1] (first compound 0.6325 µM), 0.81; in assay [1] (first compound 2 µM), 0.851; with Sulindac + Lapatinib (first compound 0.08 µM), 0.512; with Sulindac + Lapatinib (first compound 0.253 µM) it was 0.413. The relative viability with Sulindac + Lapatinib (first compound 0.8 µM) turned out to be 0.474; with Sulindac + Lapatinib (first compound 2.53 µM) it was 0.564; with Sulindac + Lapatinib (first compound 8 µM), 0.557; in assay [2] (first compound 0.005 µM), 0.854; in assay [2] (first compound 0.01581 µM) it was 0.695; in assay [2] (first compound 0.05 µM), 0.523. The relative viability in assay [2] (first compound 0.1581 µM) is 0.239; in assay [2] (first compound 0.5 µM) it was 0.179.
Consider NCI-H1299, for which the relative viability with Sulindac + Navitoclax (first compound 0.08 µM) turned out to be 1.11; in the assay with Sulindac + Navitoclax (first compound 0.253 µM), 1.05; in the assay with Sulindac + Navitoclax (first compound 0.8 µM), 1.02; in the assay with Sulindac + Navitoclax (first compound 2.53 µM), 1.05; in the assay with Sulindac + Navitoclax (first compound 8 µM), 1.05; with Sulindac + Lapatinib (first compound 0.08 µM) it was 1.06. Also, the relative viability turned out to be 0.927 in the assay with Sulindac + Lapatinib (first compound 0.253 µM), 0.96 with Sulindac + Lapatinib (first compound 0.8 µM), 0.942 with Sulindac + Lapatinib (first compound 2.53 µM) and 1.06 with Sulindac + Lapatinib (first compound 8 µM).
As to NCI-H1563, the relative viability in assay [1] (first compound 0.02 µM) worked out at 0.396; in assay [1] (first compound 0.2 µM) it was 0.517; in assay [1] (first compound 0.6325 µM) it was 0.423; in assay [1] (first compound 2 µM) it was 0.483; in the assay with Sulindac + Lapatinib (first compound 0.08 µM), 0.992; with Sulindac + Lapatinib (first compound 0.253 µM), 0.901. For the same cell line, the values for the relative viability with Sulindac + Lapatinib (first compound 0.8 µM), with Sulindac + Lapatinib (first compound 2.53 µM) and with Sulindac + Lapatinib (first compound 8 µM) were 0.884, 0.879 and 0.933, respectively.
With NCI-H1623, the relative viability in assay [1] (first compound 0.02 µM) worked out at 0.412; in assay [1] (first compound 0.2 µM), 0.64; in assay [1] (first compound 0.6325 µM), 0.256; in assay [1] (first compound 2 µM), 0.232.
As for NCI-H1648, the relative viability in assay [2] (first compound 0.005 µM) amounted to 0.517; in assay [2] (first compound 0.01581 µM), 0.167; in assay [2] (first compound 0.05 µM), 0.269; in assay [2] (first compound 0.1581 µM) it was 0.246; in assay [2] (first compound 0.5 µM), 0.271.
In the case of NCI-H1703, the relative viability with Sulindac + Navitoclax (first compound 0.08 µM) is 1.14; in the assay with Sulindac + Navitoclax (first compound 0.253 µM) it was 0.978; in the assay with Sulindac + Navitoclax (first compound 0.8 µM) it was 0.877; with Sulindac + Navitoclax (first compound 2.53 µM), 1.1; with Sulindac + Navitoclax (first compound 8 µM), 1.45; with Sulindac + Lapatinib (first compound 0.08 µM), 1.37. For the same cell line, the relative viability with Sulindac + Lapatinib (first compound 0.253 µM) is 1.37; with Sulindac + Lapatinib (first compound 0.8 µM), 0.97; with Sulindac + Lapatinib (first compound 2.53 µM) it was 1.25; with Sulindac + Lapatinib (first compound 8 µM) it was 1.08.
For the cell line NCI-H1792, the relative viability in the assay with Sulindac + Navitoclax (first compound 0.08 µM) came to 0.796; in the assay with Sulindac + Navitoclax (first compound 0.253 µM), 0.682; with Sulindac + Navitoclax (first compound 2.53 µM), 0.681; in the assay with Sulindac + Navitoclax (first compound 8 µM), 0.691; in assay [1] (first compound 0.02 µM), 0.929; in assay [1] (first compound 0.2 µM), 0.714. Also, the relative viability was determined as 0.277 in assay [1] (first compound 0.6325 µM); 0.196 in assay [1] (first compound 2 µM); 1.13 with Sulindac + Lapatinib (first compound 0.08 µM); 0.982 in the assay with Sulindac + Lapatinib (first compound 0.253 µM); 0.947 with Sulindac + Lapatinib (first compound 2.53 µM); 1.12 with Sulindac + Lapatinib (first compound 8 µM).
Take NCI-H2342: the relative viability worked out at 0.305 in assay [1] (first compound 0.02 µM); 0.343 in assay [1] (first compound 0.2 µM); 0.301 in assay [1] (first compound 0.6325 µM); 0.293 in assay [1] (first compound 2 µM); 0.987 in assay [2] (first compound 0.005 µM); 0.74 in assay [2] (first compound 0.01581 µM). The relative viability was found to be 0.444 in assay [2] (first compound 0.05 µM), 0.34 in assay [2] (first compound 0.1581 µM) and 0.3 in assay [2] (first compound 0.5 µM).
As to SW 900, the relative viability in assay [1] (first compound 0.02 µM) came out at 0.507; in assay [1] (first compound 0.2 µM) it was 0.539; in assay [1] (first compound 0.6325 µM), 0.548; in assay [1] (first compound 2 µM), 0.577; in assay [2] (first compound 0.005 µM), 0.294; in assay [2] (first compound 0.01581 µM) it was 0.15. Besides, the relative viability in assay [2] (first compound 0.05 µM) is 0.171; in assay [2] (first compound 0.1581 µM), 0.146; in assay [2] (first compound 0.5 µM) it was 0.0929.

These data come from the supplement of paper PMC10307832.
